Read-outs that look alike come from different tables or passages of the source.
What was measured:
S. epidermidis 18972 = test: MBIC/MIC secondary assay (crystal violet biofilm staining / OD600 growth); format: cell-based, Staphylococcus epidermidis; conditions: for MIC: Staphylococcus epidermidis
Protocol: (§1) Assays for detecting and measuring bacterial biofilm formation are known in the art. An example of a biofilm formation assay useful in detecting and characterizing biofilm inhibitor compounds is described in Example 1, infra. Briefly, bacterial cells are inoculated into growth medium in individual wells of a 96-well assay plate in the presence or absence of a compound (known biofilm inhibitor or test compound). After incubation for a specified time, growth medium and non-biofilm bacterial cells are removed from each of the wells. The bacterial cells in any biofilms that are adhered to the surface of a well are fixed by addition of ethanol. The ethanol is removed, and the fixed biofilm bacteria cells are stained with crystal violet (CV). The intensity of CV staining is directly correlated with bacterial biofilm formation and is measured in the wells by reading the optical density at 600 nm (OD600). The difference in biofilm formation between untreated control and treated cultures provides an indication of relative biofilm inhibition activity (anti-biofilm activity). Use of different concentrations of an inhibitor in multiple and otherwise duplicate cultures permits determination of a compound's Minimal Biofilm Inhibitory Concentration (MBIC), which is defined herein as the lowest concentration of a compound that inhibits biofilm formation by at least 80% (i.e., ≧80%) compared to untreated control cultures.
(§2) A higher throughput was achieved by formatting the assay for use in flat-bottomed 96-well assay plates (Costar 3590 assay plates, Corning Life Sciences, Lowell, Mass.). The biofilm cultures grew on the bottoms of each well in a surface attached mode. In each assay plate, columns 1 and 12 contained untreated cultures, which served as negative controls (0% biofilm inhibition). Each of the assay wells in columns 2-11 contained a unique small molecule from the Microbiotix Screening Library (MSL) at a final concentration of 100 μM. Assay plates were inoculated with 200 μl/well of a culture of Staphylococcus pidermidis 18972 in 0.5×Tryptic Soy Broth (TSB; Becton Dickinson, Franklin Lakes, N.J.) in which the concentration of glucose was adjusted to 0.25% (w/v). The bacterial inocula were prepared by making a 1:100 dilution of an overnight culture grown in TSB in the media used for the screen. After inoculation, assay plates were sealed with foil tape and incubated at 37° C. for 18-20 hours (h). The optical density at 600 nm (OD600) was measured for each well using a VICTOR2V™ multiplate reader (Perkin Elmer, Waltham, Mass.) in order to quantify overall bacterial growth. The assay plates were processed to remove bacterial growth media and non-biofilm cells from the bottom of each assay well. This was accomplished by using a BioTek ELx405™ plate washer (BioTek Instruments, Inc., Winooski, Vt.). Biofilm bacteria were fixed by addition of 50 μl of 95% ethanol for 30 minutes (min). The ethanol was removed, and the fixed biofilm cultures were stained with 50 μl of 0.06% crystal violet (CV) for 60 min. Excess CV was removed by repeated washes using the BioTek ELx405™ plate washer. The amount of CV bound to each assay well was quantified by measuring OD600 using a VICTOR2V™ plate reader (Perkin Elmer).
(§3) A secondary assay provided a quantitative measure of both anti-biofilm activity and antibacterial activity in terms of the Minimal Biofilm Inhibitory Concentration (MBIC) and the Minimal Inhibitory Concentration (MIC), respectively. The MBIC and MIC are defined as the lowest compound concentrations that inhibit biofilm formation and bacterial growth, respectively, by at least 80% (i.e., ≧80%). The MBIC/MIC assay is formatted in a manner that is similar to the Microbroth dilution assays described by the Clinical and Laboratory Standards Institute (CLSI; formerly NCCLS) in protocol M7-A7. The growth conditions were optimized for biofilm growth in 96-well assay plates such that the resulting CV staining was within the linear range of detection. […]

[1] = test system: S. epidermidis strain O47; test: MBIC/MIC secondary assay; format: cell-based, Staphylococcus epidermidis; conditions: for MIC: Staphylococcus epidermidis
Protocol: as §1, §2, §3

S. aureus strain NRS-77 = test: MBIC/MIC secondary assay; format: cell-based, Staphylococcus aureus; conditions: for MIC: Staphylococcus aureus, NRS77
Protocol: as §1, with “cultures. […]” for “cultures.”
A secondary assay provided a quantitative measure of both anti-biofilm activity and antibacterial activity in terms of the Minimal Biofilm Inhibitory Concentration (MBIC) and the Minimal Inhibitory Concentration (MIC), respectively. The MBIC and MIC are defined as the lowest compound concentrations that inhibit biofilm formation and bacterial growth, respectively, by at least 80% (i.e., ≧80%). The MBIC/MIC assay is formatted in a manner that is similar to the Microbroth dilution assays described by the Clinical and Laboratory Standards Institute (CLSI; formerly NCCLS) in protocol M7-A7. The growth conditions were optimized for biofilm growth in 96-well assay plates such that the resulting CV staining was within the linear range of detection. Therefore, the MBIC/MIC assay provided a stringent measure of anti-biofilm activity.
The assay was adapted for several biofilm-forming strains of S. epidermidis, S. aureus, Enterococcus faecalis, and Pseudomonas aeruginosa. Briefly, 96-well assay plates contained a two-fold dilution series for up to 8 compounds (one compound/row) and untreated controls (concentration range of 0.2 μM-100 μM). The assay plates were inoculated with the test bacterial species, e.g., S. epidermidis 18972 (0.5×TSB, 0.25% glucose) or S. aureus ATCC 35556 (0.5×TSB, 1% glucose). The inocula were prepared by diluting an overnight culture 1:100 in fresh media, which corresponds to approximately 5×10^6 cells/well. After inoculation, the assay plates were sealed with foil tape and incubated for 18 h-20 h at 37° C. The assay plates were processed, and the percent inhibition of growth (% INH-Growth) and percent inhibition of biofilm formation (% INH-Biofilm) were calculated as described above. […] Compounds with an MBIC≦10 μM and an MIC/MBIC ratio≧8 for either S. epidermidis or S. aureus were designated as validated hits.
Minimal Biofilm Inhibitory Concentration (MBIC) and Minimal Inhibitory Concentration (MIC) of the compounds in Table 3 were determined against various strains of biofilm-forming bacteria.

[2] = S. epidermidis strain 18972, Table 4

MIC (S. epidermidis 18972; S. epidermidis strain 18972, Table 4, read-out: MIC) [µM]	MIC ([1]; S. epidermidis strain O47, read-out: MIC) [µM]	MIC (S. aureus strain NRS-77; S. aureus strain NRS-77, read-out: MIC) [µM]	Structure (SMILES)	MBIC (S. epidermidis 18972; [2]) [µM]	MIC (S. epidermidis 18972; 18972) [µM]	MBIC ([1]; S. epidermidis strain O47) [µM]	MIC ([1]; O47) [µM]	MBIC (S. aureus strain NRS-77; S. aureus strain NRS-77) [µM]	MIC (S. aureus strain NRS-77) [µM]
			CCOc1cc(/C=C2\SC(=S)N(c3cccc(C#N)c3)C2=O)ccc1O [Compound 34, 3-(3-cyanophenyl)-5-(3-ethoxy-4-hydroxybenzylidene)-2-thioxothiazolidin-4-one]	25	≥ 100	1.6	≥ 100	12.5	≥ 100
≥ 100	≥ 100	≥ 100	C=CCOc1cc(/C=C2\SC(=S)N(c3ccc(F)cc3)C2=O)ccc1O [Compound 29, 3-(4-fluorophenyl)-5-(3-allyloxy-4-hydroxybenzylidene)-2-thioxothiazolidin-4-one]	25		12.5		12.5	
			CCOc1cc(/C=C2\SC(=S)N(c3cccc(F)c3)C2=O)ccc1O [Compound 8, 3-(3-fluorophenyl)-5-(3-ethoxy-4-hydroxybenzylidene)-2-thioxothiazolidin-4-one]	50	≥ 100	25	≥ 100	25	≥ 100
			CCOc1cc(/C=C2\SC(=S)N(c3ccc(F)nc3)C2=O)ccc1O [Compound 40, 3-(6-fluoropyridin-3-yl)-5-(3-ethoxy-4-hydroxybenzylidene)-2-thioxothiazolidin-4-one]	25	≥ 100	6.3	≥ 100	6.3	≥ 100
			CCOc1cc(/C=C2\SC(=S)N(c3ccc(F)cc3)C2=O)ccc1O [Compound 4, 3-(4-fluorophenyl)-5-(3-ethoxy-4-hydroxybenzylidene)-2-thioxothiazolidin-4-one]	25	≥ 100	12.5	≥ 100	25	≥ 100
			CCOc1cc(/C=C2\SC(=S)N(c3cccnc3)C2=O)ccc1O [Compound 36, 3-(pyridin-3-yl)-5-(3-ethoxy-4-hydroxybenzylidene)-2-thioxothiazolidin-4-one]	12.5	≥ 100	50	≥ 100	12.5	≥ 100

Source: patent US20110098323A1, “INHIBITORS OF BACTERIAL BIOFILM FORMATION” (MICROBIOTIX, INC., priority 2009, published 2011)
